# Assay results: patent US6748954B2, “Drug release from polymer matrices through mechanical stimulation” (The Regents of The University of Michigan, priority 2000, dated 2004)
# Test: in vitro release of trypan blue from alginate hydrogel disks with or without compression
# Assay type: physicochemical
# Experimental: In a first in vitro experiment, alginate hydrogels were prepared comprising 10 g PROTANAL, 4 mg trypan blue (Sigma Chemical) as a model drug molecule, and 63 mg CaSO4 (Sigma Chemical). The hydrogels were cut into disks of approximately 12.7 mm diameter and approximately 2 mm thick, and thereafter swollen overnight in the commercially available Dulbecco's Modified Eagle's Medium (DMEM). The hydrogel disks so prepared were next placed in custom-made sample holders of 13 mm diameter and 30 mm length. Porous stainless steel supports were provided on both the top and bottom of each hydrogel disk to permit release of the trypan blue drug during compression of the hydrogels.
# The results of this first, in vitro experiment are shown in FIG. 1, which figure comprises an upper chart graphically depicting the mechanical stimulation cycle of compression/relaxation relative to a lower chart graphically depicting the release of the trypan blue drug from the mechanically stimulated hydrogels (line A). The control, non-compressed hydrogels are also depicted in this lower chart (line B).
smiles,measurement,setting,value
Cc1cc(-c2ccc(/N=N/c3c(S(=O)(=O)O)cc4cc(S(=O)(=O)O)cc(N)c4c3O)c(C)c2)ccc1/N=N/c1c(S(=O)(=O)O)cc2cc(S(=O)(=O)O)cc(N)c2c1O [trypan blue],effect of compression on trypan blue release,compressed (A) versus non-compressed (B) hydrogels,did not significantly alter
same,release of the trypan blue drug from the compressed hydrogels,"compressed hydrogels (line A), three compression/relaxation cycles, 10% maximum compressive strain, DMEM-swollen",increased steadily
